“Also recorded” adds a separate entry of the source. Like-named read-outs stand apart in the source and are kept apart here.
Experiments:
[1] = tested on: MDA-MB-231 breast cancer cells; format: cell-based
Protocol: The effectiveness of TOL has been tested using an in vitro model for breast cancer. MDA-MB-231 breast cancer cells were cultured to complete confluency in 96-well plates. These breast cancer cells are known to over-express VGSCs by 1400-fold. These cells were exposed to Dulbecco's modified Eagle's medium (DMEM), or the cardiac glycoside drugs (known sodium pump inhibitors) ouabain (10 pM-100 nM; Sigma Chemical Co., St. Louis, Mo.) or digitoxin (100 pM-1 μM; Sigma) dissolved in DMEM for 30 min. After exposure to the sodium pump inhibitors, an electric current (0 V, 100 mV, or 1 V DC) was passed across the cells using an anode and a cathode placed touching the bottom of each well or an etched circuit in the bottom of the plate. The electric current was generated using a Grass Model SD9 stimulator (Grass Instruments, Quincy, Mass.) through platinum wire electrodes.
Initially we cultured MDA-MB-231 (ATCC, Manassas, Va., cat #HTB-26) breast cancer cells to complete confluency in 96-well plates. These cells over-express VGSCs by 100-fold. […] An electric current (0 V, 100 mV, or 1 V DC) was passed across the cells by means of an anode and a cathode placed touching the bottom of each well as in Example 1.

[2] = tested on: 3LL (non-small cell lung cancer); assay: Time to lysis of cultured cancer cells (drug + electrical stimulation); format: cell-based; conditions: 2 V DC, 200 pulses per second, 5 min limit
Source text: (§1) We also used two cardiac glycoside drugs that are currently FDA-approved for clinical use, ouabain and digoxin, for in vitro lysis of multiple lines of carcinoma. […] Cell lines were: MDA-MB-231 (breast cancer); MCF-7 (breast cancer; ATCC# HTB-22); LNCaP (prostate cancer; ATCC# CRL-1740); DU145 (prostate cancer; ATCC# HTB-81); MCA-38 (colon cancer; from Dr. Augusto Ochoa); A549 (non-small cell lung cancer; ATCC# CCL-185); and 3LL (non-small cell lung cancer; from Dr. Augusto Ochoa, Louisiana State University, New Orleans, La.). Cells were plated in 35 mm diameter culture dishes in Dulbecco's Modified Eagle's Medium (DMEM, Gibco) supplemented with 4 mM L-glutamine, 1 mM sodium pyruvate and 10 μM insulin for 18-24 hr. […] A 2 V DC current, 200 pulses per second was passed across individual cells using a Grass Model SD9 stimulator (Grass Instruments, Quincy, Mass.) through platinum wire electrodes held in place with a David Kopf Instrument micromanipulator (Tarzana, Calif.), and the time to lysis was measured. Video recordings of representative experiments were prepared digitally using a Canon Vixia HFM400 camera attached to Leica DM IL microscope, and are available upon request. […] All of the cancer cells lysed, with the time to lysis faster for the cells with the largest known expression of VGSCs.

[3] = tested on: DU145 (prostate cancer); assay: as above; format: cell-based; conditions: 2 V DC, 200 pulses per second, 5 min limit
Source text: as §1

[4] = tested on: LNCaP (prostate cancer); assay: as above; format: cell-based; conditions: 2 V DC, 200 pulses per second, 5 min limit
Source text: as §1

[5] = tested on: MCA-38 (colon cancer); assay: as above; format: cell-based; conditions: 2 V DC, 200 pulses per second, 5 min limit
Source text: as §1

[6] = tested on: MDA-MB-231 (breast cancer); assay: as above; format: cell-based; conditions: 2 V DC, 200 pulses per second, 5 min limit
Source text: as §1

[7] = tested on: A549 (non-small cell lung cancer); assay: as above; format: cell-based; conditions: 100 nM ouabain, 2 V DC, 200 pulses per second, 5 min limit
Protocol: (§2) Cell lines were: MDA-MB-231 (breast cancer); MCF-7 (breast cancer; ATCC# HTB-22); LNCaP (prostate cancer; ATCC# CRL-1740); DU145 (prostate cancer; ATCC# HTB-81); MCA-38 (colon cancer; from Dr. Augusto Ochoa); A549 (non-small cell lung cancer; ATCC# CCL-185); and 3LL (non-small cell lung cancer; from Dr. Augusto Ochoa, Louisiana State University, New Orleans, La.). Cells were plated in 35 mm diameter culture dishes in Dulbecco's Modified Eagle's Medium (DMEM, Gibco) supplemented with 4 mM L-glutamine, 1 mM sodium pyruvate and 10 μM insulin for 18-24 hr. […] A 2 V DC current, 200 pulses per second was passed across individual cells using a Grass Model SD9 stimulator (Grass Instruments, Quincy, Mass.) through platinum wire electrodes held in place with a David Kopf Instrument micromanipulator (Tarzana, Calif.), and the time to lysis was measured. Video recordings of representative experiments were prepared digitally using a Canon Vixia HFM400 camera attached to Leica DM IL microscope, and are available upon request.

[8] = tested on: MCF-7 (breast cancer); assay: as above; format: cell-based; conditions: 100 nM ouabain, 2 V DC, 200 pulses per second, 5 min limit
Protocol: as §2

[9] = tested on: MDA-MB-231 breast cancer cells; assay: cells; format: cell-based; conditions: alamar blue added after 1 hr, read 4 hr later
Protocol: The effect of the combination of ouabain (a sodium pump inhibitor) and veratridine (a sodium […]) on viability of cultured MDA-MB-231 and MCF-7 breast cancer cells was assessed. The former cells over-express VGSCs by more than 1000-fold, whereas the latter cells over-express VGSCs by 100-fold (24). MDA-MB-231 cells were cultured in DMEM, whereas MCF-7 cells were cultured in DMEM+10 μM insulin. After centrifugation, both cell lines were re-suspended in DMEM+10 μM insulin to assure normal functioning of Na^+, K^+-ATPase, and approximately 5000 cells were added to each well in a 96-well plate in a volume of 100 μl. After 18 hr, the media was aspirated, and the cells were treated with 100 μl DMEM+10 μM insulin (“media”) alone, media+100 nM ouabain, media+30 μM veratridine, or media+100 nM ouabain+30 μM veratridine. After 1 hr, […] alamar blue was added to each well, and cell viability determined 4 hr after this addition. All determinations were obtained in quadruplicate, and the experiment repeated three times. […] Veratridine alone reduced viability of MDL-MB-231 cells by 15% (FIG. 1) compared to media alone-treated cells. In this initial experiment, ouabain combined with veratridine produced a 30% reduction in cell viability. In MCF-7 cells, none of the treatments affected cell viability (Data not shown). […]

[10] = tested on: MDA-MB-231 tumors; assay: In vivo TOL in breast cancer xenografts, tumor histology (hematoxylin and eosin); parameters: species or system nude (J-NU) mice
Protocol: As an in vivo model of cancer, MDA-MB-231 cells were suspended in matrigel and injected subcutaneously into the backs of 5 nude (J-NU) mice. Each mouse developed 0.75-1.2 cm tumors in 3-5 weeks. The mice were then injected subcutaneously with 10 mg/kg ouabain or saline. After 30 min, the mice were anesthetized with 4% isoflurane, and the tumors exposed through a small incision in the skin. An anode and a cathode were inserted into each tumor, and a train of 120 1 V DC pulses (10 msec, 2 Hz for 1 min) was delivered through the anode and cathode as discussed above. A total of 11 tumors were tested. Three tumors were from mice treated with ouabain and electrically stimulated (O-ES experimental). Of the rest, two were from a mouse treated with saline and not electrically stimulated (S-NS control), three were from mice treated with ouabain but not electrically stimulated (O-NS control), and three were from mice treated with saline and electrically stimulated (S-ES control). The electrical stimulation was repeated 15 and 30 min later. One day later, mice were sacrificed with an overdose of Nat pentobarbital, perfused with 4% buffered paraformaldehyde, and the tumors removed. The tumors were sectioned at 5 μm and stained with hematoxylin and eosin. […] The other two mice in the O-ES group had tumors that were not highly vascularized, and thus the ouabain could not efficiently distribute to the tumor cells.
As an in vivo model of cancer, we injected 4 million MDA-MB-231 cells, suspended in matrigel, subcutaneously into the backs of 5 nude (J-NU) mice. Each mouse developed 0.75-1.2 cm tumors in 3-5 weeks. The mice were injected subcutaneously with 10 mg/kg ouabain or saline and then after 30 min anesthetized with 4% isoflurane. The tumors of the mice were exposed through a small incision in the skin. An anode and a cathode were inserted into each tumor, and a train of 120 1 V DC pulses (10 msec, 2 pulses per second for 1 min) using the Grass SD9 stimulator was delivered through a copper anode and cathode. Some controls received no stimulation. A total of 11 tumors were tested. Three tumors were from mice treated with 10 mg/kg s.c. ouabain and electrically stimulated (O-ES experimental). […]
This experiment was repeated using 10 mice (2 per control group and 4 in the experimental group.) Four million MDA-MB-231 cells suspended in 50% matrigel were injected s.c. in J/Nu mice, and tumors allowed to grow until visibly vascularized (reddish in appearance.) Stimulation parameters were 10 V DC, 1 msec pulses @ 200 pulses per second. […] One day later, animals were sacrificed, perfused, tumors removed, and prepared for hematoxylin and eosin staining Stained sections from each of the tumors were evaluated by a trained histologist.

[11] = tested on: muscle, peripheral nerves, heart, and brain; format: in vivo, J/Nu mice
Protocol: As an in vivo model of cancer, MDA-MB-231 cells were suspended in matrigel and injected subcutaneously into the backs of 5 nude (J-NU) mice. Each mouse developed 0.75-1.2 cm tumors in 3-5 weeks. The mice were then injected subcutaneously with 10 mg/kg ouabain or saline. After 30 min, the mice were anesthetized with 4% isoflurane, and the tumors exposed through a small incision in the skin. An anode and a cathode were inserted into each tumor, and a train of 120 1 V DC pulses (10 msec, 2 Hz for 1 min) was delivered through the anode and cathode as discussed above. A total of 11 tumors were tested. Three tumors were from mice treated with ouabain and electrically stimulated (O-ES experimental). Of the rest, two were from a mouse treated with saline and not electrically stimulated (S-NS control), three were from mice treated with ouabain but not electrically stimulated (O-NS control), and three were from mice treated with saline and electrically stimulated (S-ES control). The electrical stimulation was repeated 15 and 30 min later. One day later, mice were sacrificed with an overdose of Nat pentobarbital, perfused with 4% buffered paraformaldehyde, and the tumors removed. The tumors were sectioned at 5 μm and stained with hematoxylin and eosin. […]

[12] = tested on: MDA-MB-231 tumors; assay: Tumor growth following a single TOL treatment; format: in vivo, J/Nu mice; conditions: single treatment Day 0: ouabain 10 mg/kg + 2×1 min electrical stimulation; cross-sectional area followed three weeks; p<0.01
Protocol: When vascularized tumors became apparent, mice were divided into 4 treatment groups: Saline-No stimulation; Saline-Stimulation (2×1 min electrical stimulation); Ouabain (10 mg/kg)-No stimulation; and Ouabain (10 mg/kg)-Stimulation (2×1 min electrical stimulation). Only a single treatment was given for each treatment group on Day 0 of FIG. 2. Tumor cross-sectional area was then measured with calipers every-other day for three weeks. The tumor growth was expressed as a percent pre-treatment size and plotted against time.

Compound: C[C@H]1O[C@@H](O[C@H]2[C@@H](O)C[C@H](O[C@H]3[C@@H](O)C[C@H](O[C@H]4CC[C@@]5(C)[C@H](CC[C@@H]6[C@@H]5C[C@@H](O)[C@]5(C)[C@@H](C7=CC(=O)OC7)CC[C@]65O)C4)O[C@@H]3C)O[C@@H]2C)C[C@H](O)[C@@H]1O [digoxin]
- cancer cell death in wells [1]: every cancer cell died; also recorded: all cancer cells died
- Mean time-to-lysis ± SEM, Digoxin + Stimulation ([2]; 1 μM digoxin): 163.75 ± 8.27 s
- Mean time-to-lysis ± SEM, Digoxin + Stimulation ([3]; 1 μM digoxin): 111.3 ± 9.7 s
- Mean time-to-lysis ± SEM, Digoxin + Stimulation ([4]; 1 μM digoxin): 122.9 ± 3.13 s
- Mean time-to-lysis ± SEM, Digoxin + Stimulation ([5]; 1 μM digoxin): 122.7 ± 9.02 s
- Mean time-to-lysis ± SEM, Digoxin + Stimulation ([6]; 1 μM digoxin 15-45 min): 68.39 ± 7.31 s

Compound: C[C@@H]1O[C@@H](O[C@H]2C[C@@H](O)[C@]3(CO)[C@H]4[C@H](O)C[C@]5(C)[C@@H](C6=CC(=O)OC6)CC[C@]5(O)[C@@H]4CC[C@]3(O)C2)[C@H](O)[C@H](O)[C@H]1O [ouabain]
- cancer cell death in wells ([1]; ≧1 nM ouabain 30 min, then 100 mV or 1 V DC electric current, 6 of 24 wells (ouabain or digoxin)): every cancer cell died; also recorded: all cancer cells died
- Mean time-to-lysis ± SEM, Ouabain + Stimulation ([2]; 100 nM ouabain): 115.9 ± 3.33 s
- Mean time-to-lysis ± SEM, Ouabain + Stimulation ([3]; 100 nM ouabain): 81.6 ± 3.96 s
- Mean time-to-lysis ± SEM, Ouabain + Stimulation ([4]; 100 nM ouabain): 143.1 ± 5.78 s
- Mean time-to-lysis ± SEM, Ouabain + Stimulation ([5]; 100 nM ouabain): 74.0 ± 1.0 s
- Mean time-to-lysis ± SEM, Ouabain + Stimulation ([6]; 100 nM ouabain 15-45 min): 69.3 ± 4.82 s
- Mean time-to-lysis ± SEM, Ouabain + Stimulation [7]: 149.9 ± 11.70 s
- Mean time-to-lysis ± SEM, Ouabain + Stimulation [8]: 170.5 ± 15.35 s
- change in cell viability compared to media-only controls ([9]; 100 nM ouabain alone): no decrease in cell viability
- lysis in tumors that were not highly vascularized ([10]; 10 mg/kg s.c. ouabain + electrical stimulation (1 V DC), the other two mice of the O-ES group): no lysis was seen
- tumor cell death after treatment ([10]; 10 mg/kg s.c. ouabain + electrical stimulation (120 1 V DC pulses, repeated 15 and 30 min later), one of three O-ES tumors, one day later): 80%
- cell lysis in tumors, ouabain without electrical stimulation (O-NS control) ([10]; 10 mg/kg s.c. ouabain, no stimulation, three tumors, one day later): None of the tumors in any of the other three treatments showed any sign of cell lysis; also recorded: None of the tumors in any of the three control treatments showed any sign of cell lysis
- lysis in control tumors (incl. ouabain without stimulation) ([10]; repeat experiment, 10 mice, 2 per control group, 10 mg/kg s.c. ouabain): none of the controls showed any sign of lysis
- lysis in healthy muscle, peripheral nerves, heart, and brain ([11]; 10 mg/kg ouabain s.c., tissues electrically stimulated after 30 min, one day later): None of these tissues showed signs of lysis
- cell death in normal muscle taken from the base of the tumor ([11]; 10 mg/kg s.c. ouabain + electrical stimulation (1 V DC), same mouse as the tumor with 80% cell death): no sign of cell death
- tumor size smaller than in the three other groups [12]: 70%

Compound: COc1ccc(C(=O)O[C@H]2CC[C@@]3(C)[C@@H]4CC[C@H]5[C@]6(O)C[C@H](O)[C@@]7(O)[C@@H](CN8C[C@@H](C)CC[C@H]8[C@@]7(C)O)[C@]6(O)C[C@@]53O[C@]24O)cc1OC [veratridine]
- cytotoxicity at 30 µM ([9]; Homo sapiens, 30 μM veratridine alone, read-out: reduction in cell viability compared to media alone): 15%
